The record followed here is ChEMBL document CHEMBL1133998, “Studies directed towards the refinement of the pancratistatin cytotoxic pharmacophore” (2001).

The structures appear in SMILES notation. Values after ≈ are worked out from the molar mass of the structure shown.

Format in all cases: functional
Assay [1] relates to P388. The assay can be described thus: Effective dose against the p-388 mouse leukemia cell line. As to conditions: read-out: ED50 (the source's name).
Assay [2] deals with CCRF-CEM. The assay can be described thus: Effective dose for inhibition of proliferation of the leukemia cell line CCRF-CEM. As to conditions: Homo sapiens, read-out: ED50 (the source's name).
Assay [3] deals with HL-60. Description: Effective dose for inhibition of proliferation of the leukemia cell line HL-60(TB). As to conditions: Homo sapiens, read-out: ED50 (the source's name).
The subject of assay [4] is NCI-H226. Description: Effective dose for inhibition of proliferation of the lung cancer cell line NCI-H226. As to conditions: Homo sapiens, read-out: ED50 (the source's name).

As to `O=C1N[C@H]2[C@H](O)CCC[C@@H]2c2cc3c(cc21)OCO3`, the EC50 in assay [1] came out at 40.1 µg/mL (≈ 153 µM).
Regarding `O=C1N[C@H]2C[C@H](O)[C@@H](O)C[C@@H]2c2cc3c(cc21)OCO3`, the EC50 was determined as 0.55 µg/mL (≈ 1.98 µM) in assay [2], 0.89 µg/mL (≈ 3.21 µM) in assay [3], 0.65 µg/mL (≈ 2.34 µM) in assay [4] and 0.45 µg/mL (≈ 1.62 µM) in assay [1].
